The compounds below were run against T1, BA/F3-FLT3-ITD + D835Y (Homo sapiens, UniProt P36888, D835Y, cells depend on it, form not given) (assay: Engineered BA/F3 cell growth assay, FLT3 ITD/D835Y). Conditions: 3 d growth.
T1 sequence (P36888 with tags, fused parts or gaps INS600HVDFREYEYD/D835Y): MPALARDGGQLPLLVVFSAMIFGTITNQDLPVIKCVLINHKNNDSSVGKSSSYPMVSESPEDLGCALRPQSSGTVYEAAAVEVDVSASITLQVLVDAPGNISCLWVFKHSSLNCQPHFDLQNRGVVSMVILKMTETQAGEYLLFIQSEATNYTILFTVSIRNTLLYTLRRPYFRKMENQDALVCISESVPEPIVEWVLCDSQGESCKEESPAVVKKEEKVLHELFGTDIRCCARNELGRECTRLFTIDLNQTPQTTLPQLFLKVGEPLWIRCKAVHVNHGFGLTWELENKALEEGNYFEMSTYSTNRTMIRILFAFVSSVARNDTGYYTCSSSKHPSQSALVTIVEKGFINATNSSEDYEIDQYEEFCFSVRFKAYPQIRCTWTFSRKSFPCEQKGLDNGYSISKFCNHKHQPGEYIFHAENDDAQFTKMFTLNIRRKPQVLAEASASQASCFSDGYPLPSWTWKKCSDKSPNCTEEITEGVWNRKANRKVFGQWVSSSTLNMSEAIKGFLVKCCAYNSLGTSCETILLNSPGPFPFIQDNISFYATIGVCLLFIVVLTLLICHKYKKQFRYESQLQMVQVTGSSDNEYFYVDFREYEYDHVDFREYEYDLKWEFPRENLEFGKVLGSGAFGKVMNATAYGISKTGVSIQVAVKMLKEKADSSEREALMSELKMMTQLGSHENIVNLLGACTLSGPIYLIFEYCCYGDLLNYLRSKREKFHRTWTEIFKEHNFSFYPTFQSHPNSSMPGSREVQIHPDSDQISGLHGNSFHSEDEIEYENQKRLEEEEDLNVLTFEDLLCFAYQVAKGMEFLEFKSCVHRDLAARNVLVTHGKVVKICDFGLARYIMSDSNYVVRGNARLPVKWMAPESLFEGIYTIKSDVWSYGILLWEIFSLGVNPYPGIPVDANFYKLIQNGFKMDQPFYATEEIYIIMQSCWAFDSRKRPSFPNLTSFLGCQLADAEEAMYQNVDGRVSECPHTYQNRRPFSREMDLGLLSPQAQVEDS
Assay type: cell-based, murine
Method in brief: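 IC50 derived from CellTiter-Glo ATP luminescence after 3 days at 37 °C, 5% CO2, over eight 1:3 dilutions from 1 μM (0.2% DMSO final). Cells: IL-3-independent murine Ba/F3 expressing full-length FLT3 ITD/D835Y, 1×10^4 per well.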

GI50 [µM] | SMILES
0.0001 to 10 | Cn1cc(Nc2ncc(-c3ccc(CC(=O)Nc4cccc(C(F)(F)F)c4)cc3)cn2)cn1 [Compound P-0141, 2-[4-[2-[(1-methylpyrazol-4-yl)amino]pyrimidin-5-yl]phenyl]-N-[3-(trifluoromethyl)phenyl]acetamide]
0.0001 to 10 | Cn1cc(Nc2ncc(-c3ccc(CC(=O)Nc4cc(Cl)c(C5CC5)cn4)cc3)cn2)cn1 [Compound P-0164, N-(4-chloro-5-cyclopropyl-2-pyridyl)-2-[4-[2-[(1-methylpyrazol-4-yl)amino]pyrimidin-5-yl]phenyl]acetamide]
0.0001 to 10 | Cn1cc(Nc2ncc(-c3ccc(CC(=O)Nc4cnc(F)c(C(C)(F)F)c4)cc3)cn2)cn1 [Compound P-0104, N-[5-(1,1-difluoroethyl)-6-fluoro-3-pyridyl]-2-[4-[2-[(1-methylpyrazol-4-yl)amino]pyrimidin-5-yl]phenyl]acetamide]
0.0001 to 10 | Cn1cc(Nc2ncc(-c3ccc(CC(=O)Nc4cccc(C(C)(C)C#N)c4)cc3)cn2)cn1 [Compound P-0158, N-[3-(1-cyano-1-methyl-ethyl)phenyl]-2-[4-[2-[(1-methylpyrazol-4-yl)amino]pyrimidin-5-yl]phenyl]acetamide]
0.0001 to 10 | O=C(Cc1ccc(-c2cnc3[nH]c(-c4ccc(N5CCOCC5)nc4)cc3c2)c(F)c1)Nc1cncc(C(F)(F)F)c1 [Compound P-0198, 2-[3-fluoro-4-[2-(6-morpholino-3-pyridyl)-1H-pyrrolo[2,3-b]pyridin-5-yl]phenyl]-N-[5-(trifluoromethyl)-3-pyridyl]acetamide]
0.0001 to 10 | Cc1ncc(NC(=O)Cc2cc(F)c(-c3cnc4[nH]nc(C)c4c3)cc2F)cc1C(F)(F)F [Compound P-0175, 2-(2,5-difluoro-4-(3-methyl-1H-pyrazolo[3,4-b]pyridin-5-yl)phenyl)-N-(6-methyl-5-(trifluoromethyl)pyridin-3-yl)acetamide]
0.0001 to 10 | COc1ncc(NC(=O)Cc2cc(F)c(-c3cnc4[nH]nc(C)c4c3)cc2F)cc1C(F)(F)F [Compound P-0176, 2-[2,5-difluoro-4-(3-methyl-1H-pyrazolo[3,4-b]pyridin-5-yl)phenyl]-N-[6-methoxy-5-(trifluoromethyl)-3-pyridyl]acetamide]
0.0001 to 10 | COc1cc(NC(=O)Cc2ccc(-c3cnc(Nc4cnn(C)c4)nc3)cc2)ccn1 [Compound P-0153, N-(2-methoxy-4-pyridyl)-2-[4-[2-[(1-methylpyrazol-4-yl)amino]pyrimidin-5-yl]phenyl]acetamide]
0.0001 to 10 | Cn1cc(Nc2ncc(-c3ccc(CC(=O)Nc4ccc(C(F)(F)F)cn4)cc3)cn2)cn1 [Compound P-0109, 2-[4-[2-[(1-methylpyrazol-4-yl)amino]pyrimidin-5-yl]phenyl]-N-[5-(trifluoromethyl)-2-pyridyl]acetamide]
0.0001 to 10 | Cn1cc(Nc2ncc(-c3ccc(CC(=O)Nc4cccc(OC(F)(F)F)c4)cc3)cn2)cn1 [Compound P-0157, 2-[4-[2-[(1-methylpyrazol-4-yl)amino]pyrimidin-5-yl]phenyl]-N-[3-(trifluoromethoxy)phenyl]acetamide]
0.0001 to 10 | Cn1cnc(Nc2ncc(-c3ccc(CC(=O)Nc4cnc(Cl)c(C(F)(F)F)c4)c(F)c3)cn2)c1 [Compound P-0100, N-[6-chloro-5-(trifluoromethyl)-3-pyridyl]-2-[2-fluoro-4-[2-[(1-methylimidazol-4-yl)amino]pyrimidin-5-yl]phenyl]acetamide]

SMILES | GI50 [µM]
COc1ncc(NC(=O)Cc2ccc(-c3cnc(Nc4cn(C)cn4)nc3)cc2F)cc1C(F)(F)F [Compound P-0101, 2-[2-fluoro-4-[2-[(1-methylimidazol-4-yl)amino]pyrimidin-5-yl]phenyl]-N-[6-methoxy-5-(trifluoromethyl)-3-pyridyl]acetamide] | 0.0001 to 10
